Values of other authors in US20020137728A1, “Topical oral care compositions” (Oraceutical LLC, priority 2001, published 2002).

Assays:
[1] = system: serum alkaline phosphatase enzyme; details: single dose intraperitoneally, Wistar rats with artificially induced periodontal lesions
[2] = peroxide tooth whitening composition on tooth surface

time to reach vital pulp tissue from initial contact on the tooth surface [2] | SMILES | serum alkaline phosphatase enzyme [1]
– | O=C1O[C@H]([C@@H](O)CO)C(O)=C1O [ascorbic acid] | increase
≤ 15 min | OO [hydrogen peroxide] | –
